# Experimental data taken from patent US20050209278A1, “Piperidinyl- and piperazinyl-sulfonylmethyl hydroxamic acids and their use as protease inhibitors” (priority 2002, published 2005).
# Where “and” joins values, the source holds several entries; their conditions need not be identical. Equal values may be shown once.
# Target: T1, MMP-1 (Homo sapiens, UniProt P03956)
# T1 construct: made in house; host or cells: MMP-1-transfected HT-1080 cells (spent media)
# T1 sequence (P03956 100-469): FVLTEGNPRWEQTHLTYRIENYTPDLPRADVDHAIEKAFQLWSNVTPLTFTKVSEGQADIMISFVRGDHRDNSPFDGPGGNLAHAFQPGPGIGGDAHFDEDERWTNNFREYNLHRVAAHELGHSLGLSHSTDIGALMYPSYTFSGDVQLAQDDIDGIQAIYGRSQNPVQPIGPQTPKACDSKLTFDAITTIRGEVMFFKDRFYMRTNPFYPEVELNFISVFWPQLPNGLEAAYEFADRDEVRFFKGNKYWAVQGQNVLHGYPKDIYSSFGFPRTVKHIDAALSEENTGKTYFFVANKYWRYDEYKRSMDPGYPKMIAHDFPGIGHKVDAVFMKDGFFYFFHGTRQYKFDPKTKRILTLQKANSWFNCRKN
# Assay: In vitro MMP inhibition, Ki determination (fluorogenic substrate II)
# Assay type: biochemical
# Conditions: value outside parentheses; read-out: MMP-1 Ki
row,SMILES,Ki
1,O=C(NO)C1(S(=O)(=O)N2CCN(c3ncc(-c4ccc5c(c4)OCO5)s3)CC2)CCOCC1 [Example 362],2.12 µM
2,O=C(NO)C1(S(=O)(=O)N2CCN(c3ccc(-c4ccccc4F)cn3)CC2)CCOCC1 [Example 317],2.41 µM
3,O=C(O)c1ccc(N2CCN(S(=O)(=O)C3(C(=O)NO)CCOCC3)CC2)cc1 [Example 352],> 10 µM
4,O=C(NO)C1(S(=O)(=O)N2CCN(c3ccc(Br)cn3)CC2)CCOCC1 [Example 331],0.279 µM
5,O=C(NO)C1(S(=O)(=O)N2CCC(COCC(F)(F)C(F)(F)C(F)(F)C(F)F)CC2)CCOCC1 [Example 378],> 10 µM
6,Cc1ccc(-c2cnc(N3CCN(S(=O)(=O)C4(C(=O)NO)CCOCC4)CC3)s2)cc1 [Example 344],3.52 µM
7,CCN1CCC(C(=O)NO)(S(=O)(=O)N2CCN(c3ccc(-c4ccccc4)c(F)c3)CC2)CC1 [Example 341],> 10 µM
8,O=C(NO)C1(S(=O)(=O)N2CCN(c3ccc(OCCCC(F)(F)F)cc3)CC2)CC(O)C1 (stereo not shown) [Example 342],> 10 µM
9,O=C(NO)C1(S(=O)(=O)N2CCC(COCC(F)(F)C(F)F)CC2)CCOCC1 [Example 375],> 10 µM
10,CCc1ccc(-c2cnc(N3CCN(S(=O)(=O)C4(C(=O)NO)CCOCC4)CC3)s2)cc1 [Example 381],3.25 µM
11,O=C(NO)C1(S(=O)(=O)N2CCC(COCC(F)(F)C(F)(F)F)CC2)CCOCC1 [Example 376],> 10 µM
12,O=C(NO)C1(S(=O)(=O)N2CCN(c3cnn(-c4ccccc4)c(=O)c3Cl)CC2)CCOCC1 [Example 329],> 10 µM
13,O=C(NO)C1(S(=O)(=O)N2CCC(c3ccc(CCC(F)(F)C(F)(F)F)cn3)CC2)CCOCC1 [Example 340],5.86 µM
14,COc1ccc(-c2cnc(N3CCN(S(=O)(=O)C4(C(=O)NO)CCOCC4)CC3)s2)cc1OC [Example 371],8.25 µM
15,O=C(NO)C1(S(=O)(=O)N2CCC(c3ccc(-c4cccs4)cn3)CC2)CCOCC1 [Example 394],2.75 µM
16,O=C(NO)C1(S(=O)(=O)N2CCN(c3ncc(-c4cccc(-c5ccccc5)c4)s3)CC2)CCOCC1 [Example 365],> 10 µM
17,O=C(NO)C1(S(=O)(=O)N2CCN(c3ccc(-c4ccc(Cl)c(Cl)c4)cc3)CC2)CCOCC1 [Example 328],3.72 µM
18,CCCCc1ccc(C2CCN(S(=O)(=O)C3(C(=O)NO)CCN(CC)CC3)CC2)nc1 [Example 396],> 10 µM
19,O=C(NO)C1(S(=O)(=O)N2CCC(c3ccc(OCC(F)(F)C(F)F)cc3)CC2)CCN(C2CC2)CC1 [Example 350],> 10 µM
20,CCC=C1CCN(S(=O)(=O)C2(C(=O)NO)CCOCC2)CC1 [Example 374],0.303 µM
21,O=C(NO)C1(S(=O)(=O)N2CCC(c3ccc(OCC(F)(F)C(F)F)cc3)CC2)CCN(CCN2CCOCC2)CC1 [Example 385],> 10 µM
22,O=C(NO)C1(S(=O)(=O)N2CCN(c3ncc(-c4ccc(Cl)c(Cl)c4)s3)CC2)CCOCC1 [Example 369],> 10 µM
23,CCCCCc1cccc(N2CCN(S(=O)(=O)C3(C(=O)NO)CCOCC3)CC2)c1 [Example 356],> 10 µM
24,N#Cc1cccc(-c2cnc(N3CCN(S(=O)(=O)C4(C(=O)NO)CCOCC4)CC3)s2)c1 [Example 384],0.266 µM
25,O=C(NO)C1(S(=O)(=O)N2CCN(c3ccc(OCC(F)(F)C(F)F)cc3)CC2)CCOCC1 [Example 336],2.64 µM
26,O=C(NO)C1(S(=O)(=O)N2CCN(c3ccc(CCCC(F)(F)F)cc3)CC2)CCOCC1 [Example 320],> 10 µM
27,CC(C)(C)c1ccc(-c2cnc(N3CCN(S(=O)(=O)C4(C(=O)NO)CCOCC4)CC3)s2)cc1 [Example 347],2.77 µM
28,Cc1cccc(-c2cnc(N3CCN(S(=O)(=O)C4(C(=O)NO)CCOCC4)CC3)s2)c1 [Example 370],5.74 µM

# The next lines start with the values.
row,Ki,SMILES
1,5.25 µM,O=C(NO)C1(S(=O)(=O)N2CCN(c3ncc(-c4ccc(Cl)cc4)s3)CC2)CCOCC1 [Example 343]
2,> 10 µM,CCCCc1ccc(-c2cnc(N3CCN(S(=O)(=O)C4(C(=O)NO)CCOCC4)CC3)s2)cc1 [Example 379]
3,5.11 µM,COCCN1CCC(C(=O)NO)(S(=O)(=O)N2CCN(c3ncccn3)CC2)CC1 [Example 332]
4,> 10 µM,O=C(NO)C1(S(=O)(=O)N2CCC(c3ccc(OC(F)(F)C(F)(F)F)cc3)CC2)CCOCC1 [Example 349]
5,> 10 µM,CCc1ccc(C2CCN(S(=O)(=O)C3(C(=O)NO)CCN(CCOC)CC3)CC2)s1 [Example 314]
6,3.35 µM,O=C(NO)C1(S(=O)(=O)N2CCN(c3ncc(-c4ccc(O)cc4)s3)CC2)CCOCC1 [Example 368]
7,> 10 µM,O=C(NO)C1(S(=O)(=O)N2CCN(c3ccc(CCCC(F)(F)F)c(F)c3)CC2)CCOCC1 [Example 389]
8,> 10 µM,CCCCc1cnc(N2CCN(S(=O)(=O)C3(C(=O)NO)CCN(CCOC)CC3)CC2)nc1 [Example 334]
9,> 10 µM,O=C(NO)C1(S(=O)(=O)N2CCN(c3ccc(CCC(F)(F)C(F)(F)F)cc3)CC2)CCN(C2CC2)CC1 [Example 335]
10,> 10 µM,O=C(NO)C1(S(=O)(=O)N2CCC(c3ccc(CCCC(F)(F)F)cc3)CC2)CCN(C2CC2)CC1 [Example 351]
11,3.43 µM,O=C(NO)C1(S(=O)(=O)N2CCC(c3ccc(-c4ccccc4)cn3)CC2)CCOCC1 [Example 392]
12,0.611 µM and 0.795 µM,O=C(NO)C1(S(=O)(=O)N2CCN(c3ccc(-c4ccccc4)cn3)CC2)CCOCC1 [Example 372]
13,> 2.5 µM,O=C(NO)C1(S(=O)(=O)N2CCN(c3ncc(/C=C/c4ccccc4)s3)CC2)CCOCC1 [Example 361]
14,2.69 µM,O=C(NO)C1(S(=O)(=O)N2CCN(c3ncc(-c4cccnc4)s3)CC2)CCOCC1 [Example 382]
15,> 10 µM,COc1ccccc1-c1ccc(N2CCN(S(=O)(=O)C3(C(=O)NO)CCOCC3)CC2)nc1 [Example 318]
16,2.35 µM,O=C(NO)C1(S(=O)(=O)N2CCN(c3ncc(-c4ccc([N+](=O)[O-])cc4)s3)CC2)CCOCC1 [Example 363]
17,> 10 µM,NC(=O)c1ccccc1-c1cnc(N2CCN(S(=O)(=O)C3(C(=O)NO)CCOCC3)CC2)s1 [Example 383]
18,7.51 µM,CCCCOc1ccc(N2CCN(S(=O)(=O)C3(C(=O)NO)CCN(CCOC)CC3)CC2)nc1 [Example 325]
19,> 10 µM,O=C(NO)C1(S(=O)(=O)N2CCN(c3ncc(-c4ccccn4)s3)CC2)CCOCC1 [Example 387]
20,> 10 µM,O=C(NO)C1(S(=O)(=O)N2CCN(c3cnn(CCCC(F)(F)F)c(=O)c3)CC2)CCOCC1 [Example 321]
21,3.78 µM,O=C(NO)C1(S(=O)(=O)N2CCC(c3ccc(OCC(F)(F)F)cc3)CC2)CCOCC1 [Example 357]
22,> 10 µM,O=C(NO)C1(S(=O)(=O)N2CCN(c3cnn(-c4ccccc4)c(=O)c3)CC2)CCOCC1 [Example 322]
23,> 2.5 µM,O=C(NO)C1(S(=O)(=O)N2CCN(c3ncc(-c4ccc(-c5ccccc5)cc4)s3)CC2)CCOCC1 [Example 360]
24,> 10 µM,O=C(NO)C1(S(=O)(=O)N2CCN(c3ccc(OCC4CC4)c(F)c3)CC2)CCOCC1 [Example 333]
25,5.54 µM,O=C(NO)C1(S(=O)(=O)N2CCN(c3ncc(-c4ccc(F)cc4)s3)CC2)CCOCC1 [Example 345]
26,> 10 µM,O=C(NO)C1(S(=O)(=O)N2CCN(c3ccc(CCCC(F)(F)F)cn3)CC2)CCOCC1 [Example 358]
27,6.58 µM,O=C(NO)C1(S(=O)(=O)N2CCN(c3ccc(OCC(F)(F)C(F)F)cc3)CC2)CCOCC1 [Example 326]
